# In patent US9187439B2, “Tricyclic compounds useful as neurogenic and neuroprotective agents” (INCEPTION 1, INC., priority 2011, dated 2015):
# Key:
# [1] = system: mitochondria isolated from HeLa cells; test: HeLa cytochrome C release assay; assay type: biochemical; settings: at a concentration of 10 μM; release initiated with t-Bid 25 nM
# Protocol: HeLa Cytochrome C Release Assay
# […] by a compound of Formula I (and/or a compound of any of the other formulae described herein), was evaluated in mitochondria isolated from HeLa cells. In the assay, 10-20 million HeLa cells were resuspended in assay buffer (70 mM sucrose; 230 mM mannitol; 1 mM EDTA; 5 mM HEPES, pH 7 with KOH) containing protease inhibitor cocktail (Sigma P-8340) and treated with 1.5 μg/million cells digitonin for 5 minutes at 4° C. Cells were pelleted by centrifugation and washed twice with assay buffer containing 0.5% BSA. Cells were resuspended in assay buffer and homogenized with a Dounce homogenizer (60 strokes) on ice. Intact cells were removed by centrifugation (1000×g, 10 min) and the supernatant centrifuged (8,500×g, 10 min) The mitochondrial pellet was resuspended in assay buffer to achieve a protein concentration of 0.333 μg/ml. 15 μl of Test compound (at 5× dilution) was combined with 45 μl mitochondria and incubated for 15 min at RT. Cytochrome C release was initiated with 15 μl t-Bid (final conc=25 nM) and the reaction continued for 30 min at RT. Samples were then centrifuged (12,000×g, 10 min) and 50 μl of the supernatant analyzed for cytochrome C content by ELISA (R & D Systems, #DCTCO).
# [2] = system: SH-SY5Y human neuroblastoma cells; test: In vitro human SHSY5Y survival assay (neuronal survival assay); assay type: cell-based; settings: n=2
# Protocol: In Vitro Human SHSY5Y Survival Assay
# In order to determine if compounds effect cell survival, we tested them in an in vitro assay using the human neuroblastoma cell line SH-SY5Y. SH-SY5Y human neuroblastoma cells treated with retinoic acid for 5 days produce a homogeneous population of neuronal differentiated cells that are strictly dependant on BDNF for their survival. SH-SY5Y cells are plated on 96-well collagen coated plates and incubated for 24 hours. Retinoic acid is then added and incubated on the cells for 5 days. After 5 days, media with retinoic acid is removed and replaced with serum free media+/−compound. Each plate includes basal media (negative) and BDNF (positive) controls. The cells are then fixed with paraformaldehyde (3.7%) and stained with the nuclear marker Hoechst and the neuronal marker beta-Tubulin III. The plate is imaged using the In Cell Analyzer 2000™. Each well is imaged in 9 different spots throughout the well. The images are analyzed with a custom-designed algorithm using the In Cell Developer™ software. Data is averaged per compound concentration and calculated as a background subtracted percent of positive control.
# [3] = target: T1, Recombinant GST-Bax protein (Homo sapiens, UniProt Q07812); test: BAX liposome assay; assay type: biochemical
# T1 construct: purchased Abnova
# T1 sequence (Q07812 whole entry): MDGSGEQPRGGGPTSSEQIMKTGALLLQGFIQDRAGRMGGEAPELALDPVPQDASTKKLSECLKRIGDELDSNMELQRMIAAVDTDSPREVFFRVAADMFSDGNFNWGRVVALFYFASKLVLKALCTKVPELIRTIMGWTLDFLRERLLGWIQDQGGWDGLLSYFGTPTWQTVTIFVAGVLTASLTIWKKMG
# Protocol: Inhibition of BAX oligomerization and pore formation was evaluated using a liposome assay preparation. To do so, 30% 1,2-dioleoyl-sn-glycero-3-phosphate and 70% 1,2-dioleoyl-sn-glycero-3-phosphocholine (Avanti Polar Lipids, Alabaster, Ala.) were mixed in chloroform followed by evaporation at 37° C. under nitrogen (Saito et al., 2000). Liposomes were then rehydrated with agitation in buffer containing 50 mM 10 kD-dextran carboxyfluorescein (dextran-CF, Invitrogen, Carlsbad, Calif.), 100 mM KCl, 1 mM EDTA and 20 mM HEPES at pH 7.4. Liposomes were then sized using 5 freeze-thaw cycles, 5 minutes in a sonication bath, followed by 3 passages through a 5 μm syringe filter and 5 passages through a 0.2 μm syringe filter. Free dextran-CF was removed by Sepharose S-300 size exclusion chromatography (GE Healthcare, Piscataway, N.J.). Recombinant GST-Bax protein (Abnova, Taipei, Taiwan) was activated by incubating for 30 minutes in 2% octyglucoside in the presence or absence of compound X in a 96-well plate. Liposomes were then added to the activated GST-Bax (final concentration 10 nM). Carboxyfluorescein release from liposomes was measured by excitation with 497 nm light and the […] monitored for 15 minutes.
IC50 [3] [µM],SMILES,inhibition of cytochrome C release [1] [%],EC50 [2] [µM]
,"OC(CN1CC2(CNC2)C1)CN1c2ccccc2Sc2ccc(C(F)(F)F)cc21 (racemic) [Example 3, (±)-1-(2,6-diazaspiro[3.3]heptan-2-yl)-3-(2-(trifluoromethyl)-10H-phenothiazin-10-yl)propan-2-ol]",93,
,"FC(F)(F)c1ccc2c(c1)N(CCCN1CC3(CNC3)C1)c1ccccc1S2 [Example 4, 10-(3-(2,6-diazaspiro[3.3]heptan-2-yl)propyl)-2-(trifluoromethyl)-10H-phenothiazine]",27,
24.6,"OC(CN1CC2(COC2)C1)CN1c2ccccc2Sc2ccc(C(F)(F)F)cc21 (racemic) [Example 1, (±)-1-(2-oxa-6-azaspiro[3.3]heptan-6-yl)-3-(2-(trifluoromethyl)-10H-phenothiazin-10-yl)propan-2-ol]",,0.509
